Values quoted from earlier work as cited in US5268391A, “Propargyl-terminated cycloalkylalkyl-P2-site substituted aryl/alkylsulfonyl-terminated alanine amino-diol compounds for treatment of hypertension” (C. D. Searle & Co., priority 1992, dated 1993).
Where a SMILES comes first, the peptide text is derived from it. [ ]: non-standard residue; d: D form. The star is where a group is joined. Sta = CC(C)C[C@H](N)[C@@H](O)CC(=O)O; Isovaleryl = CC(C)CC(=O)*

System: hog renin
Conditions: after the injection of hog renin into nephrectomized rats

CC(C)CC(=O)N[C@H](C(=O)N[C@H](C(=O)N[C@@H](CC(C)C)[C@@H](O)CC(=O)N[C@@H](C)C(=O)N[C@@H](CC(C)C)[C@@H](O)CC(=O)O)C(C)C)C(C)C [pepstatin] (Isovaleryl-VV[Sta]A[Sta]-OH)
blood pressure in vivo: reduce blood pressure
